Results from US7576053B2, “Methods and compositions for treating degenerative bone disorders” (Rigel Pharmaceuticals, Inc., priority 2005, dated 2009).

Columns and labels:
Format in all cases: in vivo
[1] = tested on: rat collagen induced arthritis (CIA) model; experiment: Rat CIA model, histopathology of hind paw bone sections (safranin-O)
Description: Upper left—naïve rat; upper right—vehicle rat; lower left—vehicle rat; lower right—compound 1007 treated rat. Micrographs are safranin-O stained sections of hind ankle paws of CIA rats, magnification 40×. To examine effect of Syk inhibitor 2,4-pyrimidinediamine compound in preventing bone degeneration, a rat collagen induced arthritis model was used (see, e.g., WO 2004/014382, incorporated herein by reference). Rats were immunized with bovine collagen II on day 0 and boosted on day 7. […] Animals were subsequently treated b.i.d. with inhibitor compound or vehicle alone. After 18 days of treatment, hind paw bone structure and integrity were evaluated by X-rays, histopathology, and serum bone marker COMP.

[2] = tested on: cartilage oligometrix matrix protein (COMP); experiment: Rat CIA model, serum bone marker COMP; conditions: FIG. 4
Method: (§1) To examine effect of Syk inhibitor 2,4-pyrimidinediamine compound in preventing bone degeneration, a rat collagen induced arthritis model was used (see, e.g., WO 2004/014382, incorporated herein by reference). Rats were immunized with bovine collagen II on day 0 and boosted on day 7. […] Animals were subsequently treated b.i.d. with inhibitor compound or vehicle alone. After 18 days of treatment, hind paw bone structure and integrity were evaluated by X-rays, histopathology, and serum bone marker COMP.

[3] = tested on: rat collagen induced arthritis (CIA) model; experiment: Rat collagen induced arthritis (CIA) model, hindlimb radiographs scored blindly; conditions: b.i.d., 18 days of treatment
Description: as §1, with “Data are the means±standard error, where n=13 per group, except for naïve (n=4). Radiographs of hindlimbs were obtained at the conclusion of the study and scored blindly. […] To” for “To”

## COc1cc(Nc2ncc(F)c(Nc3ccc4c(n3)NC(=O)C(C)(C)O4)n2)cc(OC)c1OC [compound 1007, N4-(2,2-dimethyl-3-oxo-4H-5-pyrid[1,4]oxazin-6-yl)-5-fluoro-N2-(3,4,5-trimethoxyphenyl)-2,4-pyrimidinediamine]
[1]; FIG. 2
  severity of bone destruction (histopathological assessment of bone sections): significant reduction in severity of bone destruction
[1]; FIG. 3, magnification 40x
  bone erosion (safranin-O stained sections of hind ankle paws): reduction
  osteoclast activity (safranin-O stained sections of hind ankle paws): reduction
  pannus formation (safranin-O stained sections of hind ankle paws): reduction
[2]
  serum levels of cartilage oligometrix matrix protein (COMP), a marker for collagen destruction: reduction
[3]; 10 mg/kg, p<0.05
  bone erosion (radiograph score of hind paws): significant reduction in bone erosion
[3]; 30 mg/kg, p<0.001
  bone erosion (radiograph score of hind paws): significant reduction in bone erosion
